Tests used:
[1] = biological target: T1, N-Myc (Homo sapiens, UniProt P04198); test: microscale thermophoresis (MST) with labeled purified N-Myc; supported by CETSA in cells; assay type: binding
T1 construct: gene MYCN; N-Myc^1-464
T1 sequence (P04198 1-464): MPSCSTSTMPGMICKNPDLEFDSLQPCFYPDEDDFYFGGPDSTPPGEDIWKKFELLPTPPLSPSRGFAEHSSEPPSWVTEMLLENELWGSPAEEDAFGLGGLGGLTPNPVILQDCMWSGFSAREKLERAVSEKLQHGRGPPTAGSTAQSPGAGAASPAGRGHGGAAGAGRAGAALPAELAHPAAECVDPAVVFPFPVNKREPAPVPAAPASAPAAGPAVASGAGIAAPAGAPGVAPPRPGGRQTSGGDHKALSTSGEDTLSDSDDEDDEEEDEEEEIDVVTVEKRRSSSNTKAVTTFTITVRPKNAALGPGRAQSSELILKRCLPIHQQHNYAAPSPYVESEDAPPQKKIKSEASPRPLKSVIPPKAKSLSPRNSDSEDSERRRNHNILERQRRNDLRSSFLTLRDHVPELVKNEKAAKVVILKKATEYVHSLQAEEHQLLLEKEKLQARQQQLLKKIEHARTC

[2] = biological target: T2, c-Myc (Homo sapiens, UniProt P01106); test: microscale thermophoresis (MST) with labeled recombinant c-Myc; assay type: binding
T2 construct: c-Myc^1-439
T2 sequence (P01106 16-454): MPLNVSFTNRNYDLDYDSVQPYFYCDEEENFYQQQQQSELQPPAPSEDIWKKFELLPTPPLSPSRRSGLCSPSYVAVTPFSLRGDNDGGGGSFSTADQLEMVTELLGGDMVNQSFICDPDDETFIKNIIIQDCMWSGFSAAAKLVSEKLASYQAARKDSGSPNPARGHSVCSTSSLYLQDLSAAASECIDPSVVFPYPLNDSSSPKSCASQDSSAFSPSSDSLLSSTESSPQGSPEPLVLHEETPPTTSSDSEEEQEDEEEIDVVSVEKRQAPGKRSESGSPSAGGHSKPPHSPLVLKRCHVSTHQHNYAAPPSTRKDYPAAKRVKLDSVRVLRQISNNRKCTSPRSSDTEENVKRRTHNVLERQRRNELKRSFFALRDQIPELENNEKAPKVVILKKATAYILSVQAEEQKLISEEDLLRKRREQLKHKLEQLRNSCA

Compound: COc1ccc(-n2nc3ccc(NC(=O)CBr)cc3n2)cc1 [N78]
- Kd [1]: 1.47 ± 0.52 µM
- Kd [2]: 8.48 ± 2.61 µM

— article PMC12374823, “A Small Molecule Selectively Targets N-Myc to Suppress Neuroblastoma Cancer Progression” (International Journal of Biological Sciences, 2025)
